Reference: US20200317660A1, “Quinazolinone Compound and Application Thereof” (LUOXIN PHARMACEUTICAL (SHANGHAI) CO., LTD., priority 2017, published 2020)

Assays:
PI3Kβ = target: T1, PI3Kβ (Homo sapiens, UniProt P42338); assay: In vitro test of enzyme activity (ADP-Glo lipokinase), PI3K beta; format: biochemical; conditions: 40 μM ATP, 50 μM PIP2:3PS, 120 min
T1 construct: purchased Promega V1751
Method: (§1) 1. In Vitro Test of Enzyme Activity
(§2) The lipokinase reaction was carried out under the conditions of a suitable substrate and ATP, followed by two steps to detect the kinase activity with the ADP-Glo™ kit. The first step was terminating the kinase reaction, wherein the remaining ATP was completely removed and only ADP was left; the second step was adding kinase detection reagents to convert ADP to ATP, accompanied by luciferin/luciferase reaction. Finally, the output value of fluorescence value was converted into kinase activity.
(§3) Experimental materials and equipments:
(§4) 2. Kit: ADP-Glo™ Lipokinase and PIP2:3PS Kit (Promega # V1792)
(§5) The kit contains: 1 mM PIP2:3PS, 10× lipid dilution buffer, 1 M magnesium chloride, 10 mM ATP, 10 mM ADP, ADP-Glo reagent, detection buffer and detection substrate.
(§6) 3. Reaction plate: OptiPlate-384, white and transparent (PerkinElmer #6007299).
(§7) 1. 10× reaction buffer: 500 mM HEPES, pH 7.5, 500 mM NaCl, 9 mM MgCl2; BSA: 10% stock solution, homemade.
(§8) 2. Final test system conditions: 1× reaction system: 50 mM HEPES, 50 mM NaCl, 3 mM MgCl2, 0.01% BSA (freshly prepared on the day of the experiment), 1% DMSO (v/v)+/−compound
(§9) 3. Reaction system: 3 μL mixture of the enzyme and the substrate (1:1)+2 μL ATP/MgCl2 mixture+5 μL ADP-Glo reagent+10 μL detection reagent.
(§10) The detailed experimental procedures are as follows:
(§11) 1. Compound dilution: 50 nL 100×compound/DMSO was transferred to the test well plate with Echo. • For PI3Kα, the compound was diluted three-fold from the highest concentration of 0.111 mM for a total of 10 concentrations. • For PI3Kβ/PI3Kδ/PI3Kγ, the compound was three-fold diluted from the highest concentration of 1.11 mM for a total of 10 concentrations.
(§12) (1) The compound to be tested was prepared and 50 nL of 100 plus compound solution or DMSO was added to the corresponding well plate.
(§13) (2) 3.33 plate reaction buffer was prepared.
(§14) (3) 3.33 solution PIP2:3PS was prepared, PIP2:3PS was thawed for at least 1 minute before use.
(§15) (4) 2.5 mM containing 5.25 mM MgCl2 was prepared.
(§16) (5) 3.33 PI3Kα/PI3Kβ/PI3Kδ/PI3Kγ solution was prepared.
(§17) (6) The lipokinase solution and the PIP2:3PS solution were mixed in a volume ratio of 1:1.
(§18) (7) 3.33: lipokinase buffer and PIP2:3PS solution were mixed in a volume ratio of 1:1.
(§19) (8) 3 μL of buffer solution and PIP2:3PS were added to the first and the second columns of the well plate.
(§20) (9) 3 μL of the mixed solution of the enzyme and PIP2:3PS was added to the wells except the first and the second columns, centrifuged for 10 seconds (1000 rpm) and incubated at 23° C. for 20 minutes.
(§21) (10) 2 μL […] was added and well was shaken.
(§22) (11) The well plate was covered and shaken for about 30 s, then the well plate was incubated at 23° C. for 2 hours.
(§23) (12) 5 μL of ADP-Glo reagent containing 10 mM MgCl2 was added.
(§24) (13) The well plate was centrifuged at 1000 rpm for 10 seconds, and the well plate was then covered, shaken for about 30 seconds, and incubated at 23° C. for 60 minutes.
(§25) (14) 10 μL kinase detection reagent was added.
(§26) (15) The well plate was centrifuged at 1000 rpm for 10 seconds, and then incubated at 23° C. for 60 minutes.
(§27) (16) The fluorescence value was measured on the Envision instrument.

PI3Kα = target: T2, PI3Kα (Homo sapiens, UniProt P42336); assay: In vitro test of enzyme activity (ADP-Glo lipokinase), PI3K alpha; format: biochemical; conditions: 40 μM ATP, 50 μM PIP2:3PS, 120 min
T2 construct: purchased Millipore 14-602-K
Method: as §1, §2, §3, §4, §5, §6, §7, §8, §9, §10, §11, §12, §13, §14, §15, §16, §17, §18, §19, §20, §21, §22, §23, §24, §25, §26, §27

T1 sequence (P42338 whole entry): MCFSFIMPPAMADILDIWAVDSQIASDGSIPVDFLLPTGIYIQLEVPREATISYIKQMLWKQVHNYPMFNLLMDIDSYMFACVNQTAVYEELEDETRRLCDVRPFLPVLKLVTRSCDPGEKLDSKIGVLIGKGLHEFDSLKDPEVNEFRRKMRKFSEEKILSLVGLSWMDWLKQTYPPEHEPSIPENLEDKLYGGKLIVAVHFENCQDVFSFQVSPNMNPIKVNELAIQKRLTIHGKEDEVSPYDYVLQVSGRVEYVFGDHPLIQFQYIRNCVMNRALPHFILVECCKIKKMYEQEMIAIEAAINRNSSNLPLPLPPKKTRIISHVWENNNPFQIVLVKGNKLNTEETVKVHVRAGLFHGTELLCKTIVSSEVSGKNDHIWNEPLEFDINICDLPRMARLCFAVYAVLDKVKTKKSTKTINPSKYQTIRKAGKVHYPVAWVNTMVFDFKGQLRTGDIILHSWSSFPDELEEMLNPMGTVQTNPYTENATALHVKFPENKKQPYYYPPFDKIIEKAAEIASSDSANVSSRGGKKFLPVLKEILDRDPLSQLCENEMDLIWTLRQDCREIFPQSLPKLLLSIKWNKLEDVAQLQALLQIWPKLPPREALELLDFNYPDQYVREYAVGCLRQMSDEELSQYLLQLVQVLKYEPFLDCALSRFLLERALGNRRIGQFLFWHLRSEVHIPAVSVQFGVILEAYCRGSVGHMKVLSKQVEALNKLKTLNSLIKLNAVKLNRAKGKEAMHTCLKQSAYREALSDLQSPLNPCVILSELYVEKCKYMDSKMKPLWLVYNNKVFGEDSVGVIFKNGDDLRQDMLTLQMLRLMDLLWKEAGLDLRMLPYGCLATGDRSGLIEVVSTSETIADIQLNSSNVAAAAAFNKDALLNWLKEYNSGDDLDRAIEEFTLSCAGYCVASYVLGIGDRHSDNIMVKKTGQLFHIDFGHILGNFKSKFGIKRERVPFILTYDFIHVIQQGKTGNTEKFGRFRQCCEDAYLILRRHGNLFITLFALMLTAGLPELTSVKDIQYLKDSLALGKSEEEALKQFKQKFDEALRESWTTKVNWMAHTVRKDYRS
T1 sequence (P27986 whole entry partner): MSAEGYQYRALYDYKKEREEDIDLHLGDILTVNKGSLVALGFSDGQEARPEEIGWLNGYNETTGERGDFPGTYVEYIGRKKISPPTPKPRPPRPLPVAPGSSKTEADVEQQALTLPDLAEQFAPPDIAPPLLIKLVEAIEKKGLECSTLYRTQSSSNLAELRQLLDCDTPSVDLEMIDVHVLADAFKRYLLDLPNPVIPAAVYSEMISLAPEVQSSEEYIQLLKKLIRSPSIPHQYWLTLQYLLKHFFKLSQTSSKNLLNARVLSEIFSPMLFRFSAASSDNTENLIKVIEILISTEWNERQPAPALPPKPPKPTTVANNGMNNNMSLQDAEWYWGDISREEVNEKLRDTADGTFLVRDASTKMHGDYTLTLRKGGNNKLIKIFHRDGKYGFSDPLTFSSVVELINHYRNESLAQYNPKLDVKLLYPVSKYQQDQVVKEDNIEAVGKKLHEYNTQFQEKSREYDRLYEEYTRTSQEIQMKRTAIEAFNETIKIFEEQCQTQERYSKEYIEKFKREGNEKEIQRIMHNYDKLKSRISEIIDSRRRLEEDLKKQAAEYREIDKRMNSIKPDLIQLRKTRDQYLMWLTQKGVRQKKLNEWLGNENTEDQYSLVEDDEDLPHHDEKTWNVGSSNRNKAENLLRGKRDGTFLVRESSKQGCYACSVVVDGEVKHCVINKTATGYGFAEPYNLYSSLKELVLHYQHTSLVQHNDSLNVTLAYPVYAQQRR
T2 sequence (P42336 whole entry): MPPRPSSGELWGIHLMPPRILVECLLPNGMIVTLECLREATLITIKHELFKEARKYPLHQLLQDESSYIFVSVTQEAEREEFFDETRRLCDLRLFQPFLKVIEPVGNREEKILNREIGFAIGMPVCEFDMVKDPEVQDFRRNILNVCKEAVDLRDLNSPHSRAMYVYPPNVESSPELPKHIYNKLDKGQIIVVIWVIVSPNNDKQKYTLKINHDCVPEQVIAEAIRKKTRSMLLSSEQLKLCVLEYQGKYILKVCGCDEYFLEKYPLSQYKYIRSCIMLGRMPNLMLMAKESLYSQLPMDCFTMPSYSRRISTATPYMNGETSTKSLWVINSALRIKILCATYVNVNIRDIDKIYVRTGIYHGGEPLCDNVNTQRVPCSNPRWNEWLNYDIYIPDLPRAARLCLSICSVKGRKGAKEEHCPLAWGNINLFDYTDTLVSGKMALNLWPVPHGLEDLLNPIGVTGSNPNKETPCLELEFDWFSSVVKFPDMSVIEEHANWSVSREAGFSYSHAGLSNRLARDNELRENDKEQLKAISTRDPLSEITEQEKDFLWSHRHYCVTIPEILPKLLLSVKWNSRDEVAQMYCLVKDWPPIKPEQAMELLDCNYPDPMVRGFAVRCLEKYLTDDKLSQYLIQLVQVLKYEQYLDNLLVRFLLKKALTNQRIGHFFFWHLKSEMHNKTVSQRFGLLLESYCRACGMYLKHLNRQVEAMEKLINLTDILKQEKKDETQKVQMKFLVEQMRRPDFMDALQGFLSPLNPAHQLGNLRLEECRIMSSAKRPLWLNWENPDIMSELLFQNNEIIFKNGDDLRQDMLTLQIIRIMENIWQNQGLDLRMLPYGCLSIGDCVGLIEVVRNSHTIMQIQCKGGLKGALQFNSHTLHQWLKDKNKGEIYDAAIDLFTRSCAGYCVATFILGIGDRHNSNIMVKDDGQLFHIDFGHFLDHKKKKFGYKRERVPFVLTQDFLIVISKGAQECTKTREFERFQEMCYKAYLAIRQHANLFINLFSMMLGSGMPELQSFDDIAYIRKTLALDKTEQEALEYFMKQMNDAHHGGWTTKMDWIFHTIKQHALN
T2 sequence (P27986 whole entry partner): as the sequence (P27986 whole entry partner) above

SMILES | IC50 (PI3Kβ) [nM] | IC50 (PI3Kα) [nM]
COC(=O)C(C)Cn1cnc2ccc(-c3cnc(OC)c(NS(=O)(=O)c4ccc(F)cc4Cl)c3)cc2c1=O (single isomer, unassigned) [R005, reference compound] | 100 | 5.84
CNC(=O)C(C)Cn1cnc2ccc(-c3cnc(OC)c(NS(=O)(=O)c4ccc(C)cc4C)c3)cc2c1=O (single isomer, unassigned) [WX092] | 250 | 6.47
CNC(=O)C(C)Cn1cnc2ccc(-c3cnc(OC)c(NS(=O)(=O)c4cc(C(F)(F)F)cc(C(F)(F)F)c4)c3)cc2c1=O (single isomer, unassigned) [WX104] | 1950 | 38.5
CNC(=O)C(C)Cn1cnc2ccc(-c3cnc(OC)c(NS(=O)(=O)c4ccc(F)cc4C)c3)cc2c1=O (single isomer, unassigned) [WX180] | 411 | 10.2
CNC(=O)C(C)Cn1cnc2ccc(-c3cnc(OC)c(NS(=O)(=O)c4cc(C)cc(F)c4)c3)cc2c1=O (single isomer, unassigned) [WX187] | 331 | 4.84
CNC(=O)C(C)Cn1cnc2ccc(-c3cnc(OC)c(NS(=O)(=O)c4cc(F)cc(F)c4)c3)cc2c1=O (single isomer, unassigned) [WX193] | 451 | 12.6
CNC(=O)C(C)Cn1cnc2ccc(-c3cnc(OC)c(NS(=O)(=O)c4ccc(F)cc4C(F)(F)F)c3)cc2c1=O (single isomer, unassigned) [WX195] | 327 | 5.58
CNC(=O)C(C)Cn1cnc2ccc(-c3cnc(OC)c(NS(=O)(=O)c4ccc(OC)cc4)c3)cc2c1=O (single isomer, unassigned) [WX204] | 527 | 22.5
CNC(=O)C(C)Cn1cnc2ccc(-c3cnc(OC)c(NS(=O)(=O)c4c(Cl)cccc4Cl)c3)cc2c1=O (single isomer, unassigned) [WX208] | 119 | 2.49
CNC(=O)C(C)Cn1cnc2ccc(-c3cnc(OC)c(NS(=O)(=O)c4sccc4C)c3)cc2c1=O (single isomer, unassigned) [WX209] | 176 | 4.08
CNC(=O)C(C)Cn1cnc2ccc(-c3cnc(OC)c(NS(=O)(=O)c4cc(C)ccc4Cl)c3)cc2c1=O (single isomer, unassigned) [WX213] | 201 | 4.52
CNC(=O)C(C)Cn1cnc2ccc(-c3cnc(OC)c(NS(=O)(=O)c4cccc(C)c4F)c3)cc2c1=O (single isomer, unassigned) [WX219] | 276 | 5.36
CNC(=O)C(C)Cn1cnc2ccc(-c3cnc(OC)c(NS(=O)(=O)c4cccc(C)c4F)c3)cc2c1=O (single isomer, unassigned) [WX220] | 139 | 10.1
CCOC(=O)CCCn1cnc2ccc(-c3cnc(OC)c(NS(=O)(=O)c4ccc(F)cc4Cl)c3)cc2c1=O [R001, reference compound] | 100 | 3.77
CNC[C@@H](C)Cn1cnc2ccc(-c3cnc(OC)c(NS(=O)(=O)c4ccc(F)cc4Cl)c3)cc2c1=O [R008, reference compound] | 121 | 12
CNC[C@H](C)Cn1cnc2ccc(-c3cnc(OC)c(NS(=O)(=O)c4ccc(F)cc4Cl)c3)cc2c1=O [R009, reference compound] | 108 | 10.4
COc1ncc(-c2ccc3ncn(CC(C)(C)C(N)=O)c(=O)c3c2)cc1NS(=O)(=O)c1ccc(F)cc1Cl [WX020] | 413 | 10.2
CNC(=O)C(C)Cn1cnc2ccc(-c3cnc(C(F)(F)F)c(NS(=O)(=O)c4ccc(F)cc4Cl)c3)cc2c1=O (centres unmarked) [WX084] | 110 | 0.56
CNC(=O)[C@@H](C)Cn1cnc2ccc(-c3cnc(OC)c(NS(=O)(=O)c4cc(C)cc(Cl)c4)c3)cc2c1=O [WX184] | 192 | 8.14
CNC(=O)[C@H](C)Cn1cnc2ccc(-c3cnc(OC)c(NS(=O)(=O)c4cccc(C)c4Cl)c3)cc2c1=O [WX188] | 152 | 2.98
COc1ncc(-c2ccc3ncn(CCCC(=O)N4CCCC4)c(=O)c3c2)cc1NS(=O)(=O)c1ccc(F)cc1Cl [WX199] | 199 | 4.86
CNC(=O)[C@H](C)Cn1cnc2ccc(-c3cnc(OC)c(NS(=O)(=O)c4ccc(OC)cc4)c3)cc2c1=O [WX203] | 595 | 12.8
CNC(=O)[C@@H](C)Cn1cnc2ccc(-c3cnc(OC)c(NS(=O)(=O)c4ccccc4F)c3)cc2c1=O [WX205] | 97.3 | 3.7
CNC(=O)[C@@H](C)Cn1cnc2ccc(-c3cnc(OC)c(NS(=O)(=O)c4c(Cl)cccc4Cl)c3)cc2c1=O [WX207] | 20.5 | 0.85

Second part, the compound after the results:

IC50 (PI3Kβ) [nM] | IC50 (PI3Kα) [nM] | SMILES
211 | 8 | CNC(=O)C(C)Cn1cnc2ccc(-c3cnc(OC)c(NS(=O)(=O)c4ccc(F)cc4)c3)cc2c1=O (single isomer, unassigned) [WX088]
175 | 8.51 | CNC(=O)C(C)Cn1cnc2ccc(-c3cnc(OC)c(NS(=O)(=O)c4cc(Cl)c(F)cc4F)c3)cc2c1=O (single isomer, unassigned) [WX096]
498 | 3.56 | CNC(=O)C(C)Cn1cnc2ccc(-c3cnc(OC)c(NS(=O)(=O)c4ccc(F)c(C#N)c4)c3)cc2c1=O (single isomer, unassigned) [WX156]
287 | 5.81 | CNC(=O)C(C)Cn1cnc2ccc(-c3cnc(OC)c(NS(=O)(=O)c4ccc(F)c(C#N)c4)c3)cc2c1=O (single isomer, unassigned) [WX157]
2100 | 11.2 | CNC(=O)C(C)Cn1cnc2ccc(-c3cnc(OC)c(NS(=O)(=O)c4ccc(C)c(Cl)c4)c3)cc2c1=O (single isomer, unassigned) [WX160]
153 | 8.92 | CNC(=O)C(C)Cn1cnc2ccc(-c3cnc(OC)c(NS(=O)(=O)c4ccc(C)c(Cl)c4)c3)cc2c1=O (single isomer, unassigned) [WX161]
222 | 5.78 | CNC(=O)C(C)Cn1cnc2ccc(-c3cnc(OC)c(NS(=O)(=O)c4ccc(F)c(Cl)c4)c3)cc2c1=O (single isomer, unassigned) [WX166]
159 | 13 | CNC(=O)C(C)Cn1cnc2ccc(-c3cnc(OC)c(NS(=O)(=O)c4ccc(F)c(Cl)c4)c3)cc2c1=O (single isomer, unassigned) [WX167]
269 | 3.47 | CNC(=O)C(C)Cn1cnc2ccc(-c3cnc(OC)c(NS(=O)(=O)c4ccc(Cl)cc4C)c3)cc2c1=O (single isomer, unassigned) [WX217]
216 | 5.04 | CNC(=O)C(C)Cn1cnc2ccc(-c3cnc(OC)c(NS(=O)(=O)c4ccc(Cl)cc4C)c3)cc2c1=O (single isomer, unassigned) [WX218]
162 | 4.61 | CNC(=O)C(C)Cn1cnc2ccc(-c3cnc(OC)c(NS(=O)(=O)c4cc(Cl)ccc4C)c3)cc2c1=O (single isomer, unassigned) [WX221]
73.3 | 1.47 | CNC(=O)[C@H](C)Cn1cnc2ccc(-c3cnc(OC)c(NS(=O)(=O)c4cc(Cl)ccc4Cl)c3)cc2c1=O [WX182]
205 | 13.2 | CNC(=O)[C@H](C)Cn1cnc2ccc(-c3cnc(OC)c(NS(=O)(=O)c4ccc(Cl)c(C)c4)c3)cc2c1=O [WX190]
